The results in this text go back to patent publication US10793589B2, “Resorcinarene-based amphipathic compound and use thereof” (Industry-University Cooperation Foundation Hanyang …, priority 2016, dated 2020).

The nature of series [1]: Critical micelle concentration by fluorescence dye diphenylhexatriene (DPH). It is filed as physicochemical. The settings on record: DPH fluorescence. How it is done:
A method of measuring the CMC is not particularly limited and may be any method generally known in the art. For example, the CMC may be measured according to a fluorescence staining method using diphenylhexatriene (DPH).
(§1) Specifically, critical micelle concentrations (CMCs) were measured using a fluorescence dye, diphenylhexatriene (DPH), and hydrodynamic radii (Rh) of micelles formed of each compound (1.0 wt %) were measured by a dynamic light scattering (DLS) experiment. Measured results are shown in Table 1 in comparison with values of DDM as an existing amphipathic molecule (detergent).

In series [2] the target is T1, human β2 adrenergic receptor (β2AR) (Homo sapiens, UniProt P07550).
T1 construct: made in house
Description: β2AR stability, [3H]-dihydroalprenolol (DHA) ligand binding assay. It is filed as biochemical. The settings on record: for maintaining the ligand binding characteristic of the receptor compared to DDM: 0 hour, CMC+0.2 wt %, [3H]-DHA. How it is done:
FIGS. 10A and 10B illustrate a result of measuring the effect of RGAs on the stability of β2AR after (a) 0 hour and (b) over time. Protein-ligand binding characteristics were measured via ligand binding assay using [^3H]-dihydroalprenolol (DHA), and the measurement was carried out by sampling a protein sample at regular intervals during 2 days of storage at room temperature.
FIGS. 12A and 12B illustrate a result of measuring the effect of RMAs on the stability of β2AR after (a) 0 hour and (b) over time. Protein-ligand binding characteristics were measured via ligand binding assay using [^3H]-dihydroalprenolol (DHA), and the measurement was carried out by sampling a protein sample at regular intervals during 2 days of storage at room temperature.
An experiment was carried out to measure the structural stability of a human (32 adrenergic receptor (β2AR) and a G protein-coupled receptor (GPCR) caused by RGAs and RMAs. That is, a receptor purified with DDM was diluted with a buffer solution containing only each RGA and RMA without cholesteryl hemisuccinate (CHS) or a buffer solution containing CHS and DDM. The final concentration of the compound was CMC+0.2 wt %, and the ligand binding characteristic of the receptor was measured using [^3H]-dihydroalprenolol ([^3H]-DHA) binding.
Specifically, radioligand binding assay was carried out using the following method. β2AR was purified using 0.1% DDM according to the method described in a paper (Science, 2007, 318, 1266-1273.) written by D. M. Rosenbaum et al. and finally concentrated to about 10 mg/ml (about 200 μM). The β2AR purified with DDM was used to prepare a master binding mixture containing 10 nM [^3H]-dihydroalprenolol (DHA) supplemented with 0.5 mg/ml BSA in a 0.2% amphipathic compound (DDM, RGAs or RMAs). The receptor purified with DDM, RGAs or RMAs was incubated with 10 nM [^3H]-DHA at room temperature for 30 minutes. The mixture was loaded into a G-50 column, the flow-through was collected with 1 ml of a binding buffer (20 mM HEPES pH 7.5, 100 mM NaCl, supplemented with 0.5 mg/ml BSA and 20×CMC individual amphipathic compound, and the G-50 column was further filled with 15 ml of a scintillation fluid. Receptor-bound [^3H]-DHA was measured with a scintillation counter (Beckman). The binding capacity of [^3H]-DHA was measured and shown in a column graph. Each experiment was performed in triplicate.

A short description of series [3]: Hydrodynamic radius and size distribution of micelles by dynamic light scattering (DLS). It counts as physicochemical. Particulars: compound 1.0 wt %. How it is done:
A method of measuring the radius of a micelle is not particularly limited and may be any method generally known in the art. For example, the radius may be measured by a dynamic light scattering (DLS) experiment.
as §1
Meanwhile, size distributions of the micelles formed by RGAs and RMAs were measured using DLS.

The subject of series [4] is leucine transporter (LeuT). In words: LeuT structural stability, [3H]-Leu binding by scintillation proximity assay (SPA). It counts as biochemical, Aquifex aeolicus. On the procedure: FIGS. 7A and 7B are a set of graphs illustrating a result of measuring the structural stability of a leucine transporter (LeuT) solubilized in RGAs or DDM evaluated at CMC+0.04 wt % (a) or CMC+0.2 wt % (b). Protein stability was determined by measuring the ability of the transporter to bind a radiolabeled ligand ([3H]-Leu) via scintillation proximity assay (SPA). The substrate binding ability of LeuT was measured at regular intervals during 10 days of incubation of the protein at room temperature in the presence of individual amphipathic compounds.
FIGS. 8A and 8B are a set of graphs illustrating a result of measuring the structural stability of a leucine transporter (LeuT) solubilized in RMAs or DDM evaluated at CMC+0.04 wt % (a) or CMC+0.2 wt % (b). Protein stability was determined by measuring the ability of the transporter to bind a radiolabeled ligand ([3H]-Leu) via scintillation proximity assay (SPA). The substrate binding ability of LeuT was measured at regular intervals during 10 days of incubation of the protein at room temperature in the presence of individual amphipathic compounds.
An experiment was carried out to measure the structural stability of a leucine transporter (LeuT) caused by RGAs and RMAs. The concentrations of individual amphipathic compounds were (a) CMC+0.04 wt % or (b) CMC+0.2 wt %, and the substrate binding characteristic of LeuT was measured by scintillation proximity assay (SPA) using [^3H]-Leu. […]
Specifically, wild type LeuT derived from Aquifex aeolicus which is a thermophilic bacterium was purified according to the method described in the paper (Nature 1998, 392, 353-358) written by G. Deckert et al. LeuT was expressed in E. coli C41 (DE3) transformed with pET16b encoding a C-terminal 8×His-tagged transporter (an expression plasmid was provided by Dr. E. Gouaux (Vollum Institute, Portland, Oreg., USA)). […] The protein samples were stored at room temperature for 10 days and centrifuged at designated time points, and protein characteristics were determined by measuring the binding capacity of [^3H]-Leucine using SPA. […]

T1 sequence (P07550 whole entry): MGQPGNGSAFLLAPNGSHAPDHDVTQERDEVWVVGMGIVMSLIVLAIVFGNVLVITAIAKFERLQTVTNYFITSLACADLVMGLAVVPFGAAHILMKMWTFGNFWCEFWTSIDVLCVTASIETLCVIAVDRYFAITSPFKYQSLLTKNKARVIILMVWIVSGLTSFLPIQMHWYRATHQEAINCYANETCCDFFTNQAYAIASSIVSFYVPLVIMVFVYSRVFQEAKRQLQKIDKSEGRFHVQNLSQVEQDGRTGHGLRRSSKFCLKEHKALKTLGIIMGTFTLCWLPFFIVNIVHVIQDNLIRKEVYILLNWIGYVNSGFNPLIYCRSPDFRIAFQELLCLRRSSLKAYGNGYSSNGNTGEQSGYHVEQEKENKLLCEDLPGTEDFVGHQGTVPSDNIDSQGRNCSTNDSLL

`CCCCCCC[C@H]1c2cc(c(OCCO[C@@H]3OC(CO)[C@@H](O)[C@H](O)C3O)cc2OCCO[C@@H]2OC(CO)[C@@H](O)[C@H](O)C2O)[C@H](CCCCCCC)c2cc(c(OCCO[C@@H]3OC(CO)[C@@H](O)[C@H](O)C3O)cc2OCCO[C@@H]2OC(CO)[C@@H](O)[C@H](O)C2O)[C@@H](CCCCCCC)c2cc(c(OCCO[C@@H]3OC(CO)[C@@H](O)[C@H](O)C3O)cc2OCCO[C@@H]2OC(CO)[C@@H](O)[C@H](O)C2O)[C@@H](CCCCCCC)c2cc1c(OCCO[C@@H]1OC(CO)[C@@H](O)[C@H](O)C1O)cc2OCCO[C@@H]1OC(CO)[C@@H](O)[C@H](O)C1O` (some centres unmarked) [RGA-C8]: in series [1], the CMC was around 10 µM and the “CMC (wt %)” value is around 0.025 wt %. The “maintaining the ligand binding characteristic of the receptor compared to DDM” value in series [2] is “inferior to DDM”. Moreover, the “Rh (nm), hydrodynamic radius of micelles” value in series [3] stood at 2.8 ± 0.1 nm. Also, in series [4] (CMC+0.04 wt % versus CMC+0.2 wt %), the “LeuT stabilization as concentration of compound increased” value was “enhanced effect as concentration increased”. Also, the “effect of maintaining the substrate binding characteristic of LeuT” value in series [4] (CMC+0.2 wt %, 10 days at room temperature) is reported as “highest effect of maintaining the substrate binding characteristic of LeuT”.
For the molecule `CCCCCCCCC[C@H]1c2cc(c(OCCO[C@@H]3OC(CO)[C@@H](O)[C@H](O)C3O)cc2OCCO[C@@H]2OC(CO)[C@@H](O)[C@H](O)C2O)[C@H](CCCCCCCCC)c2cc(c(OCCO[C@@H]3OC(CO)[C@@H](O)[C@H](O)C3O)cc2OCCO[C@@H]2OC(CO)[C@@H](O)[C@H](O)C2O)[C@@H](CCCCCCCCC)c2cc(c(OCCO[C@@H]3OC(CO)[C@@H](O)[C@H](O)C3O)cc2OCCO[C@@H]2OC(CO)[C@@H](O)[C@H](O)C2O)[C@@H](CCCCCCCCC)c2cc1c(OCCO[C@@H]1OC(CO)[C@@H](O)[C@H](O)C1O)cc2OCCO[C@@H]1OC(CO)[C@@H](O)[C@H](O)C1O` (some centres unmarked) [RGA-C10], in series [1], the CMC was around 5 µM and the “CMC (wt %)” value is reported as around 0.013 wt %. Moreover, the “Rh (nm), hydrodynamic radius of micelles” value in series [3] turned out to be 3.5 ± 0.2 nm.
Take `CCCCCCCCCCC[C@H]1c2cc(c(OCCO[C@@H]3OC(CO)[C@@H](O)[C@H](O)C3O)cc2OCCO[C@@H]2OC(CO)[C@@H](O)[C@H](O)C2O)[C@H](CCCCCCCCCCC)c2cc(c(OCCO[C@@H]3OC(CO)[C@@H](O)[C@H](O)C3O)cc2OCCO[C@@H]2OC(CO)[C@@H](O)[C@H](O)C2O)[C@@H](CCCCCCCCCCC)c2cc(c(OCCO[C@@H]3OC(CO)[C@@H](O)[C@H](O)C3O)cc2OCCO[C@@H]2OC(CO)[C@@H](O)[C@H](O)C2O)[C@@H](CCCCCCCCCCC)c2cc1c(OCCO[C@@H]1OC(CO)[C@@H](O)[C@H](O)C1O)cc2OCCO[C@@H]1OC(CO)[C@@H](O)[C@H](O)C1O` (some centres unmarked) [RGA-C12]: in series [1], the CMC was around 2.5 µM and the “CMC (wt %)” value was around 0.0069 wt %. For the same molecule, the “maintaining the ligand binding characteristic of the receptor compared to DDM” value in series [2] is “superior to DDM”. The “ability to maintain the ligand binding of the receptor over time compared to DDM” value in series [2] (2 days at room temperature, early stage (0 to 12 h)) is “inferior ability to maintain the ligand binding of the receptor compared to DDM”. For the same molecule, in series [3], the “Rh (nm), hydrodynamic radius of micelles” value amounted to 3.0 ± 0.2 nm.
